Reference: patent US20260041653A1, “AN HDAC INHIBITOR FOR TREATING CANCER WITH A MODIFIED STK11 ACTIVITY OR EXPRESSION” (Tango Therapeutics, Inc., priority 2022, published 2026)
“Also recorded” adds a separate entry of the source.

Experiments:
[1] = test system: MC38_sgStk11 tumor; assay: Re-challenge of survived animals of Example 1 with MC38_sgStk11 cells; format: in vivo, Mus musculus; conditions: off-treatment
Method: Summary: A re-challenge study of Example 1 was performed to evaluate whether the survived animals from Example 1 had acquired T memory against the same tumor.
Experimental Design & Materials: The survived animals of the efficacy part were re-challenged with MC38_sgStk11 cells respectively in the opposite side of primary tumors.
The MC38_sgStk11 tumor cells were maintained in vitro as a monolayer culture in DMEM+2 mM glutamine supplemented with about 10% heat inactivated fetal bovine serum, 100 U/ml penicillin and 100 μg/ml streptomycin at about 37° C. in an atmosphere of about 5% CO2 in air. The tumor cells were routinely sub-cultured twice weekly by trypsin-EDTA treatment. The cells growing in an exponential growth phase were harvested and counted for tumor inoculation.
Mice were inoculated subcutaneously at the left lower flank with MC38_sgStk11 tumor cells (0.5×106) in 0.1 ml of PBS for tumor development. The animal numbers and the cell numbers for each group are shown in the experimental design (Table 2-1). The survived animals from the Example 1 were under post-treatment monitoring for 21 days before re-challenge.
All the procedures related to animal handling, care and the treatment in the study were performed according to the guidelines approved by the Institutional Animal Care and Use Committee (IACUC) of vendor following the guidance of the Association for Assessment and Accreditation of Laboratory Animal Care (AAALAC). At the time of routine monitoring, the animals were daily checked for any effects of tumor growth and treatments on normal behavior such as mobility, food and water consumption, body weight gain/loss (body weights were measured twice per week), eye/hair matting and any other abnormal effect as stated in the protocol. Death and observed clinical signs were recorded on the basis of the numbers of animals within each subset.
Tumor size was measured three times per week in […] using a caliper, and the volume was expressed in mm3 using the formula: V=0.5 a×b2 where a and b are the long and short diameters of the tumor, respectively.

[2] = biological target: T1, HDAC1 (Homo sapiens, UniProt Q13547); assay: Cellular NanoBRET target engagement assay, HDAC1; format: cell-based; conditions: in intact cells
T1 construct: expressed in transfected cells
T1 sequence (Q13547 whole entry): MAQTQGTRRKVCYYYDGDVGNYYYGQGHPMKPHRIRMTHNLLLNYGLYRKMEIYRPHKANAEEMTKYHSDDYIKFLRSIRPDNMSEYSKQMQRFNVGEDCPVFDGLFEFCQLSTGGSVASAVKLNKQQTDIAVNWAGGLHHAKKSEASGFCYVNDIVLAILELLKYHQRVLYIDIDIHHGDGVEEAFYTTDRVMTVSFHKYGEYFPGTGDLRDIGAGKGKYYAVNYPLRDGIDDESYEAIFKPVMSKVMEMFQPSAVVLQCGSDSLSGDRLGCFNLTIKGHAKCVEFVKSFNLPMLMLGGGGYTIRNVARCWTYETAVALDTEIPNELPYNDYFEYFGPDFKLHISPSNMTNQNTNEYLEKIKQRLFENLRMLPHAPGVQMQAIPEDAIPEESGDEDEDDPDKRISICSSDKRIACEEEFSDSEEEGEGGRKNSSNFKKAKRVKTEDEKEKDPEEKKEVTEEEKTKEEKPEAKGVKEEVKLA

[3] = biological target: T2, HDAC6 (Homo sapiens, UniProt Q9UBN7); assay: Cellular NanoBRET assay, HDAC6; format: cell-based
T2 construct: expressed in transfected cells
T2 sequence (Q9UBN7 whole entry): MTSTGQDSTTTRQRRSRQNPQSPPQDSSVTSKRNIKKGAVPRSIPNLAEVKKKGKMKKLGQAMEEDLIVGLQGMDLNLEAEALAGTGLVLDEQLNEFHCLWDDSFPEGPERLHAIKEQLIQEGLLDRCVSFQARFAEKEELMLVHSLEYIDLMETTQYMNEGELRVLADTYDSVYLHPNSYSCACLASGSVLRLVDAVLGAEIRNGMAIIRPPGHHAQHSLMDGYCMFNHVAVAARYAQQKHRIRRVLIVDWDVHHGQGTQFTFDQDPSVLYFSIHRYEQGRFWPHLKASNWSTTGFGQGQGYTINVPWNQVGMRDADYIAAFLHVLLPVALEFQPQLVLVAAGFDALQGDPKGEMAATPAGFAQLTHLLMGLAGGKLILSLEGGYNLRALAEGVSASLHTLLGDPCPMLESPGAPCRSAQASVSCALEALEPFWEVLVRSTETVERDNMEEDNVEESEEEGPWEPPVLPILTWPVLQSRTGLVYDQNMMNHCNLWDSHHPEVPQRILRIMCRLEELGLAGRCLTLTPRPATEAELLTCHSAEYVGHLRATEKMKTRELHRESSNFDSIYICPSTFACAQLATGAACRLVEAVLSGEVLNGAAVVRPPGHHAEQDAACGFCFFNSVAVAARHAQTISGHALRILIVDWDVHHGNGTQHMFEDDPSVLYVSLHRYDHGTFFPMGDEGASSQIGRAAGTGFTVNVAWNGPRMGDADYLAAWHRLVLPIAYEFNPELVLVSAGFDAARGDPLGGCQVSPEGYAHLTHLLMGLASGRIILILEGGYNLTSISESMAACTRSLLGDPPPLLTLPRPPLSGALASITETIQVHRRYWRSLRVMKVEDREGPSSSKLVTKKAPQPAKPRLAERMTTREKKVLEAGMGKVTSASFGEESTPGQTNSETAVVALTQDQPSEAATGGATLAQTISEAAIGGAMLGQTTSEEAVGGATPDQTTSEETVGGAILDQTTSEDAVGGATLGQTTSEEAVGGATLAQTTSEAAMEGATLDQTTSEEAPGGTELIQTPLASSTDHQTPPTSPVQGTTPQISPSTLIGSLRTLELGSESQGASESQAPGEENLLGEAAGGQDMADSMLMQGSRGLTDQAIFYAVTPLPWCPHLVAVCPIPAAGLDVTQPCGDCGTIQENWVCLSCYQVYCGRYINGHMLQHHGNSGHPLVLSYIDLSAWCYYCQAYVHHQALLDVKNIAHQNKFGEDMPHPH

[4] = test system: CoREST complex; assay: Fluorescence-based deacetylase assay of cell-derived HDAC complex, CoREST; format: biochemical
Excerpt: The HDAC inhibition was profiled in a fluorescence-based deacetylase assay.

[5] = Pharmacokinetics in beagle dogs; format: in vivo
Method: The PK of Compound I in beagle dogs was determined in plasma following single IV bolus and PO administration to non-naïve male and female beagle dogs. The vehicle used for IV was 20% wt/vol 2-hydroxypropyl β cyclodextrin (HPβCD), 1% vol/vol DMSO in saline, and PO was in 5% DMA, 30% PEG400 and 65% (30% HPβCD in water) (solution) or 0.5% MC (suspension). Plasma samples were collected from 3 animals/group at 0.083, 0.25, 0.5, 1, 3, 6, 9, 12, 24 and 48 hours after dosing.

[6] = Pharmacokinetics in cynomolgus monkeys; format: in vivo; conditions: cynomolgus monkey, plasma
Method: The PK of Compound I in male cynomolgus monkeys was determined in plasma following single IV bolus and PO administration to non-naïve male cynomolgus s monkeys The vehicle used for IV was 20% wt/vol HPβCD, 1% vol/vol DMSO in saline and for PO was in 0.5% MC (suspension). Plasma samples were collected from 3 animals/group at 0.083, 0.25, 0.5, 1, 3, 6, 9, 12, 24, and 48 hours after dosing.

[7] = biological target: CYP1A2 (Homo sapiens, UniProt P05177); assay: Metabolism by recombinant human CYP1A2; format: in vitro ADME; conditions: read-out: terminal half life (T1/2), rh CYP1A2
Sequence of CYP1A2 (P05177 whole entry): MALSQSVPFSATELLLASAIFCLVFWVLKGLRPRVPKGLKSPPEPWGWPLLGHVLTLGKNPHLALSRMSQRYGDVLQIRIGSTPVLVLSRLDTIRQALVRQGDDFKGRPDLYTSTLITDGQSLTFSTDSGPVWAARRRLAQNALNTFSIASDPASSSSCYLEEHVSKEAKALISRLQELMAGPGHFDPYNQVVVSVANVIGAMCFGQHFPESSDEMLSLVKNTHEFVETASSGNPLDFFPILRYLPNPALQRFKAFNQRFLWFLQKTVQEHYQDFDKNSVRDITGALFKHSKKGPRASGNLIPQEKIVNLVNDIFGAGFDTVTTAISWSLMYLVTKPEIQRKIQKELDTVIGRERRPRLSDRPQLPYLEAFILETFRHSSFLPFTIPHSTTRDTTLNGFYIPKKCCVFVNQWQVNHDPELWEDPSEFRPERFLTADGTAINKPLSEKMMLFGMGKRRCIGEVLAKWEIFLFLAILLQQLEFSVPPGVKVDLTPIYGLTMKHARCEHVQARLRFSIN
Method: (§1) Drug metabolizing enzymes involved in the biotransformation of Compound I were investigated using human liver microsomes (HLM) and recombinant enzymes. Compound I was stable in HLMs (>93% remaining after 240 minutes of incubation with HLM protein concentration at 0.6 mg/ml). CYP selective inhibitor experiments were not performed due to lack of appreciable Compound I turnover.

[8] = biological target: CYP2B6 (Homo sapiens, UniProt P20813); assay: Metabolism by recombinant human CYP2B6; format: in vitro ADME; conditions: read-out: terminal half life (T1/2), rh CYP2B6
Sequence of CYP2B6 (P20813 whole entry): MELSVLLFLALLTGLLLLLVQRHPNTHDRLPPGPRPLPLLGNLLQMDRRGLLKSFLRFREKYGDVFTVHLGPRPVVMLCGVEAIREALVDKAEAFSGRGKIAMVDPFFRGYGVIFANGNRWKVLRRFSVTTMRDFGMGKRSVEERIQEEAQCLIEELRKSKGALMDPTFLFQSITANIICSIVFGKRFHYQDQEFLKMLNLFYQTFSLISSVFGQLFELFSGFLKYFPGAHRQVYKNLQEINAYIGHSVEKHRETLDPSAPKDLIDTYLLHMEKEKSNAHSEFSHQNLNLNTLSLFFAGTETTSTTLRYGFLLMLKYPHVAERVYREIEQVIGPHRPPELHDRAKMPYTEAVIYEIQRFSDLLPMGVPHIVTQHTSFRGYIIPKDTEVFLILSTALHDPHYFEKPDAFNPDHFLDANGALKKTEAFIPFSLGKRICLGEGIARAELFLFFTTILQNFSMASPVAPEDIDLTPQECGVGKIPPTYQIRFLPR
Method: as §1

[9] = biological target: CYP2C8 (Homo sapiens, UniProt P10632); assay: Metabolism by recombinant human CYP2C8; format: in vitro ADME; conditions: read-out: terminal half life (T1/2), rh CYP2C8
Sequence of CYP2C8 (P10632 whole entry): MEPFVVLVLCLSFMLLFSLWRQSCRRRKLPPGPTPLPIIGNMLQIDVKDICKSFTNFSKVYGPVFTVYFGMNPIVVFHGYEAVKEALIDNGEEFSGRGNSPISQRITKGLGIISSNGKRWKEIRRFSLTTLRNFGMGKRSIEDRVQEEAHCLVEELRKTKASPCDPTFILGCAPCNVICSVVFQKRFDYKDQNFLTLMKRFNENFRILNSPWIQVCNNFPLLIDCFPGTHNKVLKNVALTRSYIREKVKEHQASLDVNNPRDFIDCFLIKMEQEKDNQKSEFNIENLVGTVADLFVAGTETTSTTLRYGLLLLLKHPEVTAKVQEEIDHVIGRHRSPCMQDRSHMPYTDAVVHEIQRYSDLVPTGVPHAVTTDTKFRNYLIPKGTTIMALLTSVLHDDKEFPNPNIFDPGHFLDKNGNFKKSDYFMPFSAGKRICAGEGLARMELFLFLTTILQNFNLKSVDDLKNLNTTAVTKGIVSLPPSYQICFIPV
Method: as §1

[10] = biological target: CYP2C9 (Homo sapiens, UniProt P11712); assay: Metabolism by recombinant human CYP2C9; format: in vitro ADME; conditions: read-out: terminal half life (T1/2), rh CYP2C9
Sequence of CYP2C9 (P11712 whole entry): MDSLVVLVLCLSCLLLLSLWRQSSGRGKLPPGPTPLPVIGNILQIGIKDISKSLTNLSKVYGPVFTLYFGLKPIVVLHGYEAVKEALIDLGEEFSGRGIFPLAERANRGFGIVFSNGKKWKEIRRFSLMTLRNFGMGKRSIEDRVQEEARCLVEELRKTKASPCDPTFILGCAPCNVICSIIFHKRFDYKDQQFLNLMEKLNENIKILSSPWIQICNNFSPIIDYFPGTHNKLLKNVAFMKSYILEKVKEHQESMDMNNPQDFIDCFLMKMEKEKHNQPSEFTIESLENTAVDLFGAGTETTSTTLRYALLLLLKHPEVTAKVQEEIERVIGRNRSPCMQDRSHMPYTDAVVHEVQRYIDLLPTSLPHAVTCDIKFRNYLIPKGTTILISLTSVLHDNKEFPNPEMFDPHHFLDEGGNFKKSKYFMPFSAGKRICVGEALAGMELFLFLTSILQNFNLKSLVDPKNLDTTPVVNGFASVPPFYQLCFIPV
Method: as §1

[11] = test system: CYP3A4/5; assay: Metabolism by recombinant human CYP3A4/5; format: in vitro ADME; conditions: read-out: terminal half life (T1/2), rh CYP3A4/5
Method: as §1

[12] = logD7.4; format: physicochemical; conditions: pH 7.4

C[S@@](=N)(=O)c1ccc(C(=O)Nc2cc(-c3ccc(F)cc3)ccc2N)cc1 [Compound I, (R)—N-(4-amino-4′-fluoro-[1,1′-biphenyl]-3-yl)-4-(S-methylsulfonimidoyl)benzamide]
Tumor Volume after re-challenge ([1]; Re-challenge Gr 2: survivor of Ex. 1 Gr. 5 (Anti-IgG2a + Compound I 75 mg/kg), day 0 after cell inoculation): 0 mm^3 | Tumor Volume after re-challenge ([1]; Re-challenge Gr 2: survivor of Ex. 1 Gr. 5 (Anti-IgG2a + Compound I 75 mg/kg), day 3 after cell inoculation): 17 mm^3 | Tumor Volume after re-challenge ([1]; Re-challenge Gr 2: survivor of Ex. 1 Gr. 5 (Anti-IgG2a + Compound I 75 mg/kg), day 5 after cell inoculation): 25 mm^3 | Tumor Volume after re-challenge ([1]; Re-challenge Gr 2: survivor of Ex. 1 Gr. 5 (Anti-IgG2a + Compound I 75 mg/kg), day 8 after cell inoculation): 6 mm^3 | Tumor Volume after re-challenge ([1]; Re-challenge Gr 2: survivor of Ex. 1 Gr. 5 (Anti-IgG2a + Compound I 75 mg/kg), day 10 after cell inoculation): 0 mm^3 | Tumor Volume after re-challenge ([1]; Re-challenge Gr 2: survivor of Ex. 1 Gr. 5 (Anti-IgG2a + Compound I 75 mg/kg), day 12 after cell inoculation): 0 mm^3 | Tumor Volume after re-challenge ([1]; Re-challenge Gr 2: survivor of Ex. 1 Gr. 5 (Anti-IgG2a + Compound I 75 mg/kg), day 15 after cell inoculation): 0 mm^3 | Tumor Volume after re-challenge ([1]; Re-challenge Gr 2: survivor of Ex. 1 Gr. 5 (Anti-IgG2a + Compound I 75 mg/kg), day 17 after cell inoculation): 0 mm^3 | Tumor Volume after re-challenge ([1]; Re-challenge Gr 2: survivor of Ex. 1 Gr. 5 (Anti-IgG2a + Compound I 75 mg/kg), day 19 after cell inoculation): 0 mm^3 | Tumor Volume after re-challenge ([1]; Re-challenge Gr 7: survivors of Ex. 1 Gr. 12 (head prints Anti-IgG2a + Compound I 150 mg/kg D0-D4, 100 mg/kg D5-D48), day 0 after cell inoculation): 0 ± 0 mm^3 | Tumor Volume after re-challenge ([1]; Re-challenge Gr 7: survivors of Ex. 1 Gr. 12 (head prints Anti-IgG2a + Compound I 150 mg/kg D0-D4, 100 mg/kg D5-D48), day 3 after cell inoculation): 27 ± 2 mm^3 | Tumor Volume after re-challenge ([1]; Re-challenge Gr 7: survivors of Ex. 1 Gr. 12 (head prints Anti-IgG2a + Compound I 150 mg/kg D0-D4, 100 mg/kg D5-D48), day 5 after cell inoculation): 27 ± 1 mm^3 | Tumor Volume after re-challenge ([1]; Re-challenge Gr 7: survivors of Ex. 1 Gr. 12 (head prints Anti-IgG2a + Compound I 150 mg/kg D0-D4, 100 mg/kg D5-D48), day 8 after cell inoculation): 6 ± 0 mm^3 | Tumor Volume after re-challenge ([1]; Re-challenge Gr 7: survivors of Ex. 1 Gr. 12 (head prints Anti-IgG2a + Compound I 150 mg/kg D0-D4, 100 mg/kg D5-D48), day 10 after cell inoculation): 0 ± 0 mm^3 | Tumor Volume after re-challenge ([1]; Re-challenge Gr 7: survivors of Ex. 1 Gr. 12 (head prints Anti-IgG2a + Compound I 150 mg/kg D0-D4, 100 mg/kg D5-D48), day 12 after cell inoculation): 0 ± 0 mm^3 | Tumor Volume after re-challenge ([1]; Re-challenge Gr 7: survivors of Ex. 1 Gr. 12 (head prints Anti-IgG2a + Compound I 150 mg/kg D0-D4, 100 mg/kg D5-D48), day 15 after cell inoculation): 0 ± 0 mm^3 | Tumor Volume after re-challenge ([1]; Re-challenge Gr 7: survivors of Ex. 1 Gr. 12 (head prints Anti-IgG2a + Compound I 150 mg/kg D0-D4, 100 mg/kg D5-D48), day 17 after cell inoculation): 0 ± 0 mm^3 | Tumor Volume after re-challenge ([1]; Re-challenge Gr 7: survivors of Ex. 1 Gr. 12 (head prints Anti-IgG2a + Compound I 150 mg/kg D0-D4, 100 mg/kg D5-D48), day 19 after cell inoculation): 0 ± 0 mm^3 | selectivity for HDAC1 compared to HDAC3 [2]: > 10 fold | IC50 [3]: > 30 µM | selectivity for CoREST deacetylase compared to NCOR, NuRD, and Sin3 [4]: significant selectivity; also recorded: selective for the CoREST complex | PO bioavailability (% F) ([5]; beagle dogs, solution at 3 mg/kg, fasted, 3 mg/kg): 67% | half-life ([5]; both sexes, beagle, dog, plasma): 8.4 h | clearance ([5]; both sexes, beagle, dog, plasma, intravenous, read-out: CL, p): 0.576 L/h/kg | bioavailability ([5]; both sexes, beagle, dog, plasma, po, 3 mg/kg, beagle dogs, solution at 3 mg/kg, fasted, read-out: PO bioavailability (% F)): 67.4% | bioavailability ([6]; po, male cynomolgus monkeys, suspension at 3 mg/kg, fed, read-out: PO bioavailability (% F)): 83% | half-life ([6]; male): 6.8 h | clearance ([6]; male, intravenous, read-out: CL, p): 0.564 L/h/kg | half-life [7]: > 1 h | half-life [8]: > 1 h | half-life [9]: > 1 h | half-life [10]: > 1 h | half-life [11]: > 1 h | logD7.4 [12]: 1.9
